According to patent publication US20210355106A1, “NEW AMINO-PYRIMIDONYL-PIPERIDINYL DERIVATIVES, A PROCESS FOR THEIR PREPARATION AND PHARMACEUTICAL COMPOSITIONS CONTAINING THEM” (LES LABORATOIRES SERVIER, priority 2018, published 2021):

Tests used:
USP7 = molecular target: T1, USP7 (Homo sapiens, UniProt Q93009, C315A); assay: Inhibition of USP7 by Fluorescence Intensity (FLINT) readings, Ubiquitin-Rhodamine-110 substrate; type: biochemical; settings: 0.25 nM His-His-USP7 (aa208-560), 60 minutes at 30° C. preincubation; Ki determined from IC50 according to Cer et al.
T1 construct: 0.25 nM His-His-USP7 (aa208-560, |C315A|) was incubated with compound; His-His (N)
Method in brief: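 His-tagged USP7 (aa208-560, C315A), 0.25 nM, preincubated with compound 60 min at 30 °C in 100 mM Bicine pH 8.0, 0.01% Triton X-100, 1 mM TCEP, 10% DMSO. Ubiquitin-Rhodamine-110 (50 nM or 4 μM) added; kinetic fluorescence (Ex 485/Em 535 nm) over 21 min; IC50 from 11-point curves, Ki derived from IC50.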

[1] = test system: Z138 mantle cell lymphoma tumour cell lines; assay: In vitro cytotoxicity, MTT assay; type: cell-based; settings: Homo sapiens, Z-138; Z138 cells, exposed to the test compounds for 96 hours
Description: The cytotoxicity studies were evaluated by MTT [3-(4,5-dimethylthiaxol-2-yl)-2,5-diphenyltetrazolium bromide|assay and carried out on Z138 mantle cell lymphoma tumour cell lines. The cells are distributed onto microplates and exposed to the test compounds for 96 hours. MTT is then added for 4 hours and converted by NAD(P)H-dependent cellular oxidoreductase enzymes in forma/an, which has a purple color. The viable cell number is proportional to the production of formazan salts and cell viability can be quantified by the absorbance of the solution at 540 nm with a spectrophotometer (Carmichael et al., Cancer Res. 1987, 47, 936-942).

T1 sequence (Q93009 208-560 C315A): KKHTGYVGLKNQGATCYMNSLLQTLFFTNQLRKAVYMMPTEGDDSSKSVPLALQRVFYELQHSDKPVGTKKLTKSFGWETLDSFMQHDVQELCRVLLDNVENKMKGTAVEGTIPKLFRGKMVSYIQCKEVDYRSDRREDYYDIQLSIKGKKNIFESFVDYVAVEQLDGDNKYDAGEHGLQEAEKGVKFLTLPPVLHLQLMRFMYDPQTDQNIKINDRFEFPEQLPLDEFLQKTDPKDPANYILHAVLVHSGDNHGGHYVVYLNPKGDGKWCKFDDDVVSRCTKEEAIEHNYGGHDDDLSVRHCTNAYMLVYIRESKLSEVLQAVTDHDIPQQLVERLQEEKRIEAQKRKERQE

SMILES	Ki (USP7) [nM]	IC50 [1] [nM]
Cc1nc(C2CCCNC2)sc1C(=O)N1CC[C@@H](C(=O)N2CCC(O)(Cn3cnc(Oc4ccc(F)cc4)c(N)c3=O)CC2)[C@H](c2ccccc2)C1 (stereo partly drawn) [Example 172, 5-amino-6-(4-fluorophenoxy)-3-[[4-hydroxy-1-[(3R,4R)-1-[4-methyl-2-(3-piperidyl)thiazole-5-carbonyl]-3-phenyl-piperidine-4-carbonyl]-4-piperidyl]methyl]pyrimidin-4-one]	7.64	385
Cc1nccc(CN2CC[C@@H](C(=O)N3CC[C@](O)(Cn4cnc(Oc5cccc(C(F)(F)F)c5)c(N)c4=O)C(F)(F)C3)[C@H](c3ccccc3)C2)n1 [Example 143, 5-amino-3-[[(4S)-3,3-difluoro-4-hydroxy-1-[(3R,4R)-1-[(2-methylpyrimidin-4-yl)methyl]-3-phenyl-piperidine-4-carbonyl]-4-piperidyl]methyl]-6-(3-(trifluoromethyl)phenoxy]pyrimidin-4-one]	42	217
Nc1c(Oc2ccc(F)cc2)ncn(CC2(O)CCN(C(=O)[C@@H]3CCN(S(=O)(=O)c4ccc(Br)s4)C[C@H]3c3ccccc3)CC2)c1=O [Example 59]	35.8	41.1
Nc1c(Oc2ccc(F)cc2)ncn(C[C@@]2(O)CCN(C(=O)[C@@H]3CCN(Cc4ccnc(-c5ccccc5)n4)C[C@H]3c3ccccc3)CC2(F)F)c1=O [Example 177, 5-amino-3-[[(4S)-3,3-difluoro-4-hydroxy-1-[(3R,4R)-3-phenyl-1-[(2-phenylpyrimidin-4-yl)methyl]piperidine-4-carbonyl]-4-piperidyl]methyl]-6-(4-fluorophenoxy)pyrimidin-4-one]	9.99	2.32
Cc1ccc(-c2nc(C)c(C(=O)N3CC[C@@H](C(=O)N4CCC(O)(Cn5cnc(Oc6ccc(CNC(=O)OC(C)(C)C)cc6)c(N)c5=O)CC4)[C@H](c4ccccc4)C3)s2)cn1 [Example 223, tert-butyl N-[[4-[5-amino-1-[[4-hydroxy-1-[(3R,4R)-1-[4-methyl-2-(6-methyl-3-pyridyl)thiazole-5-carbonyl]-3-phenyl-piperidine-4-carbonyl]-4-piperidyl]methyl]-6-oxo-pyrimidin-4-yl]oxyphenyl]methyl]carbamate]	4.2	73.2

Further molecules by falling Ki (USP7), results first:

Ki (USP7) [nM]	SMILES	IC50 [1] [nM]
47.1	Nc1c(Oc2ccc(F)cc2)ncn(C[C@@]2(O)CCN(C(=O)[C@@H]3CCN(Cc4cccnn4)C[C@H]3c3ccccc3)CC2(F)F)c1=O [Example 203]	33
45.4	Cc1cc(C(=O)N2CC[C@@H](C(=O)N3CC[C@](O)(Cn4cnc(Oc5ccc(F)cc5)c(N)c4=O)C(F)(F)C3)[C@H](c3ccccc3)C2)nn1-c1ccccc1 [Example 120, 5-amino-3-({(4S)-3,3-difluoro-4-hydroxy-1-[(3R,4R)-1-(5-methyl-1-phenyl-1H-pyrazole-3-carbonyl)-3phenylpiperidine-4-carbonyl]piperidin-4-yl)methyl)-6(4-fluorophenoxy)pyrimidin-4(3H)-one]	41.3
24.9	Cc1ncc(C(=O)N2CC[C@@H](C(=O)N3CCC(O)(Cn4cnc(Oc5ccc(F)cc5)c(N)c4=O)CC3)[C@H](c3ccccc3)C2)s1 [Example 49]	31
23.9	Cc1cnc(CN2CC[C@@H](C(=O)N3CC[C@](O)(Cn4cnc(Oc5ccc(F)cc5)c(N)c4=O)C(F)(F)C3)[C@H](c3ccccc3)C2)cn1 [Example 201]	7.5
9.9	Cc1ccc(-c2cccc(NC(=O)N3CC[C@@H](C(=O)N4CCC(O)(Cn5cnc(Oc6ccc(F)cc6)c(N)c5=O)CC4)[C@H](c4ccccc4)C3)c2)cn1 [Example 85, (3R,4R)-4-[4-[[5-amino-4-(4-fluorophenoxy)-6-oxo-pyrimidin-1-yl]methyl]-4-hydroxy-piperidine-1-carbonyl]-N-[3-(6-methyl-3-pyridyl)phenyl]-3-phenyl-piperidine-1-carboxamide]	34
2.9	COc1cc(Oc2ncn(CC3(O)CCN(C(=O)[C@@H]4CCN(C(=O)c5sc(-c6ccc(C)nc6)nc5C)C[C@H]4c4ccccc4)CC3)c(=O)c2N)ccc1F [Example 25]	2.3
